Assay results as given in US20240109881A1, “Heteroaryl Compounds as Ligand Directed Degraders of IRAK4” (Bristol-Myers Squibb Company, priority 2022, published 2024).

Molecular target: T1, IRAK4 (Homo sapiens, UniProt Q9NWZ3)
T1 construct: endogenous in cells; host or cells: THP-1 cells
T1 sequence (Q9NWZ3 1-460): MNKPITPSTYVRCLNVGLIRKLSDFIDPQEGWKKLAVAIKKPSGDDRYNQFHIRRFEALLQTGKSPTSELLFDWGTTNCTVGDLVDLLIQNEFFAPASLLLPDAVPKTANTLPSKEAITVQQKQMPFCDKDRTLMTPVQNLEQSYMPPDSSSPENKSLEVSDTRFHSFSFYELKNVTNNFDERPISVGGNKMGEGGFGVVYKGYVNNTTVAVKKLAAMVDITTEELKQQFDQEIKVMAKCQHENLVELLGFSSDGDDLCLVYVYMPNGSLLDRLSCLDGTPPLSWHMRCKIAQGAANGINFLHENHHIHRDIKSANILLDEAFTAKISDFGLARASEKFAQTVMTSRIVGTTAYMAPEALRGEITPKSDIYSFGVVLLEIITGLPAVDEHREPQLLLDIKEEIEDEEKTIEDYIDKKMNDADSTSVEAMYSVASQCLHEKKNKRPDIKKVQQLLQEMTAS
Assay: LVL THP1 HTRF (THP1 Homogeneous Time Resolved Fluorescence)
Format: cell-based
Conditions: THP1 cells, 18 h incubation with compound; for DC50: read-out: LVL THP1 HTRF EC50
Method in brief: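 IRAK4 HTRF read-out (665/615 nm ratio, anti-IRAK4 d2 acceptor and K donor, 18 h dark incubation at room temperature) on lysates of THP-1 cells. Cells were treated 18 h at 37° C. with 20 nL compound in DMSO, in colorless RPMI with 10% FBS, with a duplicate CTG plate.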

LVL THP1 HTRF YMIN	DC50	Compound
8.6%	0.165 µM	C[C@H](C#N)Nc1cc(-n2ncc3cc(C#N)cnc32)ncc1-n1cc(C2CCC(CCN3CCN(c4ccc([C@@]5(C)CCC(=O)NC5=O)cc4)[C@H](C)C3)CC2)nn1 (stereo partly shown) [P-239]
14.5%	0.297 µM	C[C@@H]1CN(CCC2CCC(c3cn(-c4cnc(-n5ncc6cc(C#N)cnc65)cc4NC4(C#N)CC4)nn3)CC2)[C@@H](C)CN1c1ccc([C@@]2(C)CCC(=O)NC2=O)cc1 (stereo partly shown) [P-240]
3.5%	0.039 µM	C[C@H](C#N)Nc1cc(-n2ncc3cc(C#N)cnc32)ncc1-n1cc(C2CCC(CCN3CCN(c4ccc([C@@]5(C)CCC(=O)NC5=O)cc4)[C@@H](C)C3)CC2)nn1 (stereo partly shown) [P-241]
2.5%	0.023 µM	C[C@H](C#N)Nc1cc(-n2ncc3cc(C#N)c(N)nc32)ncc1-n1cc(C2CCC(CCN3[C@H](C)CN(c4ccc([C@@]5(C)CCC(=O)NC5=O)cc4)C[C@H]3C)CC2)nn1 (stereo partly shown) [P-242]
3.9%	0.159 µM	C[C@H](C#N)Nc1cc(-n2ncc3cc(C#N)cnc32)ncc1-n1cc(C2CCC(CCN3[C@H](C)CN(c4ccc([C@@]5(C)CCC(=O)NC5=O)cc4)C[C@H]3C)CC2)nn1 (stereo partly shown) [P-243]
3.5%	0.056 µM	C[C@H](C#N)Nc1cc(-n2ncc3cc(C#N)cnc32)ncc1-n1cc(C2CCC(CCN3C[C@H](C)N(c4ccc([C@@]5(C)CCC(=O)NC5=O)cc4)C[C@H]3C)CC2)nn1 (stereo partly shown) [P-244]
2.6%	0.012 µM	C[C@H](C#N)Nc1cc(-n2ncc3cc(C#N)c(N)nc32)ncc1-n1cc(C2CCC(CCN3CCN(c4ccc([C@@]5(C)CCC(=O)NC5=O)cc4)[C@@H](C)C3)CC2)nn1 (stereo partly shown) [P-245]
4.1%	0.0068 µM	C[C@]1(c2ccc(N3CCN(CC[C@H]4CC[C@H](c5cn(-c6cnc(-n7ncc8cc(C#N)c(N)nc87)cc6NC6(C#N)CC6)nn5)CC4)CC3)cc2)CCC(=O)NC1=O [P-246]
13.4%	0.191 µM	C[C@H](C#N)Nc1cc(-n2ncc3ccc(N4C[C@H]5C[C@@H]4CO5)nc32)ncc1-n1cc([C@H]2CC[C@H](CCN3CCN(c4ccc([C@@]5(C)CCC(=O)NC5=O)cc4)CC3)CC2)nn1 [P-247]
4.1%	0.004 µM	C[C@H](C#N)Nc1cc(-n2ncc3cc(C#N)c(N)nc32)ncc1C(=O)N[C@H]1CC[C@H](CCN2CCN(c3ccc([C@@]4(C)CCC(=O)NC4=O)cc3)[C@@H](C)C2)CC1 [P-248]
2.4%	0.0012 µM	C[C@H](C#N)Nc1cc(-n2ncc3cc(C#N)c(N)nc32)ncc1C(=O)N[C@H]1CC[C@H](CCN2CCN(c3ccc([C@@]4(C)CCC(=O)NC4=O)cc3)CC2)CC1 [P-250]
1.9%	0.0098 µM	C[C@H](C#N)Nc1cc(-n2ncc3cc(C#N)c(N)nc32)ncc1-n1cc([C@H]2CC[C@H](CCN3[C@@H](C)CN(c4ccc([C@@]5(C)CCC(=O)NC5=O)cc4)C[C@@H]3C)CC2)nn1 [P-251]
6.3%	0.0118 µM	C[C@H](C#N)Nc1cc(-n2ncc3cc(C#N)c(N4C[C@H]5C[C@@H]4CO5)nc32)ncc1-n1cc([C@H]2CC[C@H](CCN3CCN(c4ccc([C@@]5(C)CCC(=O)NC5=O)cc4)CC3)CC2)nn1 [P-269]
0.2%	0.0065 µM	C[C@H](C#N)Nc1cc(-n2ncc3cc(C#N)cnc32)ncc1C(=O)N[C@H]1CC[C@H](CCN2CC[C@H](c3ccc([C@@]4(C)CCC(=O)NC4=O)cc3)C[C@H]2C)CC1 [P-270]
9.9%	0.0188 µM	C[C@H](C#N)Nc1cc(-n2ncc3cc(C#N)cnc32)ncc1C(=O)N[C@H]1CC[C@H](CCN2CC[C@@H](c3ccc([C@@]4(C)CCC(=O)NC4=O)cc3)C[C@@H]2C)CC1 [P-271]
10.2%	0.0103 µM	CC1CN(CC[C@H]2CC[C@H](NC(=O)c3cnc(-n4ncc5cc(C#N)cnc54)cc3N[C@H](C)C#N)CC2)CCC1c1ccc([C@@]2(C)CCC(=O)NC2=O)cc1 (stereo partly shown) [P-272]
5.6%	0.0049 µM	C[C@H](C#N)Nc1cc(-n2ncc3cc(C#N)cnc32)ncc1C(=O)N[C@H]1CC[C@H](CCN2CCC(c3ccc([C@@]4(C)CCC(=O)NC4=O)cc3)CC2)CC1 [P-273]
3.5%	0.0058 µM	C[C@H](C#N)Nc1cc(-n2ncc3cc(C#N)cnc32)ncc1C(=O)N[C@H]1CC[C@H](CCN2CCC(F)(c3ccc([C@@]4(C)CCC(=O)NC4=O)cc3)CC2)CC1 [P-274]
2.9%	0.0146 µM	C[C@H](C#N)Nc1cc(-n2ncc3cc(C#N)cnc32)ncc1C(=O)N[C@H]1CC[C@H](CCN2CCN(c3ccc([C@@]4(C)CCC(=O)NC4=O)cc3)[C@@H](C)C2)CC1 [P-275]

LVL THP1 HTRF YMIN	DC50	Compound
10.4%	0.0185 µM	CC1CN(CC[C@H]2CC[C@H](c3cn(-c4cnc(-n5ncc6cc(C#N)cnc65)cc4N[C@H](C)C#N)nn3)CC2)CCC1c1ccc([C@@]2(C)CCC(=O)NC2=O)cc1 (stereo partly shown) [P-285]
6.5%	0.0493 µM	C[C@H](C#N)Nc1cc(Nc2ncc(C#N)cc2Cl)ncc1-n1cc([C@H]2CC[C@H](CCN3CCN(c4ccc([C@@]5(C)CCC(=O)NC5=O)cc4)CC3)CC2)nn1 [P-297]
3.2%	0.0827 µM	C[C@H](C#N)Nc1cc(Nc2ccc(C#N)cn2)ncc1-n1cc([C@H]2CC[C@H](CCN3CCN(c4ccc([C@@]5(C)CCC(=O)NC5=O)cc4)CC3)CC2)nn1 [P-298]
3.5%	0.0364 µM	C[C@H](C#N)Nc1cc(Nc2ncc(C#N)cc2F)ncc1-n1cc([C@H]2CC[C@H](CCN3CCN(c4ccc([C@@]5(C)CCC(=O)NC5=O)cc4)CC3)CC2)nn1 [P-299]
11.7%	0.243 µM	C[C@H](C#N)Nc1cc(Nc2ncc(C#N)cn2)ncc1-n1cc([C@H]2CC[C@H](CCN3CCN(c4ccc([C@@]5(C)CCC(=O)NC5=O)cc4)CC3)CC2)nn1 [P-300]
17.8%	0.103 µM	C[C@@H]1CN(CC[C@H]2CC[C@H](c3cn(-c4cnc(-n5ncc6cc(C#N)cnc65)cc4NC4(C#N)CC4)nn3)CC2)CCN1c1ccc([C@@]2(C)CCC(=O)NC2=O)cc1 [P-301]
−1.0%	0.003 µM	C[C@H](C#N)Nc1cc(-n2ncc3cc(C#N)cnc32)ncc1-n1cc([C@H]2CC[C@H](CCN3CCC(c4ccc([C@@]5(C)CCC(=O)NC5=O)cc4)C(F)C3)CC2)nn1 (stereo partly shown) [P-311]
1.4%	0.0022 µM	C[C@H](C#N)Nc1cc(-c2ccc3cc(C#N)cnn23)ncc1-n1cc([C@H]2CC[C@H](CCN3CCN(c4ccc(C5CCC(=O)NC5=O)cc4)CC3)CC2)nn1 (stereo partly shown) [P-315]
24.2%	0.645 µM	C[C@H](C#N)Nc1cc(-n2ncc3cc(C#N)cnc32)ncc1C(=O)N[C@H]1CC[C@H](CCN2CCN(c3ccc(N4CCC(=O)NC4=O)cc3)CC2)CC1 [P-321]
4.4%	0.0165 µM	C[C@H](C#N)Nc1cc(-n2ncc3cc(C#N)cnc32)ncc1-n1cc(C[C@H]2CC[C@H](CN3CCN(c4ccc(C5CCC(=O)NC5=O)cc4)CC3)CC2)nn1 (stereo partly shown) [P-322]
107.9%	1 µM	C[C@H](C#N)Nc1cc(-n2ncc3cc(C#N)cnc32)ncc1-n1cc([C@H]2CC[C@H](CCN3CC(Oc4ccc(N5CCC(=O)NC5=O)cc4)C3)CC2)nn1 [P-324]
2.6%	0.0059 µM	C[C@H](C#N)Nc1cc(-n2ncc3cc(C#N)cnc32)ncc1-n1cc([C@H]2CC[C@H](CCN3CC4(CC(c5ccc(N6CCC(=O)NC6=O)cc5)C4)C3)CC2)nn1 [P-329]
2.3%	0.0174 µM	C[C@H](C#N)Nc1cc(-n2ncc3cc(C#N)cnc32)ncc1-n1cc([C@H]2CC[C@H](CCN3CC=C(c4ccc(N5CCC(=O)NC5=O)cc4)CC3)CC2)nn1 [P-330]
23.5%	0.0587 µM	Cc1cc(N2CCC(=O)NC2=O)ccc1C1CCN(CC[C@H]2CC[C@H](c3cn(-c4cnc(-n5ncc6cc(C#N)cnc65)cc4N[C@H](C)C#N)nn3)CC2)CC1 [P-334]
5.1%	0.0298 µM	C[C@H](C#N)Nc1cc(-n2ncc3cc(C#N)cnc32)ncc1-n1cc([C@H]2CC[C@H](CCN3CCC(c4cccc5c(N6CCC(=O)NC6=O)nn(C)c45)CC3)CC2)nn1 [P-335]
5.5%	0.0251 µM	Cc1cc(C2CCN(CC[C@H]3CC[C@H](c4cn(-c5cnc(-n6ncc7cc(C#N)cnc76)cc5N[C@H](C)C#N)nn4)CC3)CC2)ccc1N1CCC(=O)NC1=O [P-336]
22.4%	0.582 µM	C[C@H](C#N)Nc1cc(-n2ncc3cc(C#N)cnc32)ncc1-n1cc([C@H]2CC[C@H](CCN3CCC(c4ccc(N5CCC(=O)NC5=O)cc4)CC3)CC2)nn1 [P-340]
81.8%	0.0024 µM	C[C@H](C#N)Nc1cc(-n2ncc3cc(C#N)cnc32)ncc1-n1cc([C@H]2CC[C@H](CCN3CCC(c4ccc(N5CCC(=O)NC5=O)nc4)CC3)CC2)nn1 [P-341]

Compound	LVL THP1 HTRF YMIN	DC50
C[C@H](C#N)Nc1cc(-n2ncc3cc(C#N)cnc32)ncc1-n1cc([C@H]2CC[C@H](CCN3CCC(c4ccc(C5(O)CCC(=O)NC5=O)cc4)CC3)CC2)nn1 (stereo partly shown) [P-339]	93.1%	0.0186 µM
